From patent US8440724B2, “Inhibiting neurotransmitter reuptake” (Mayo Foundation for Medical Education and Research, priority 2008, dated 2013)

Columns and labels:
mice = assay: Locomotor activity in motility chamber, mice; format: in vivo, mouse; details: doses that exhibited positive effects in the TST, FIG. 11
mouse NET = target: T1, mouse NET (Mus musculus, UniProt O55192); assay: Competition binding against [3H]nisoxetine, mouse hippocampus tissue; details: mouse brain tissue (hippocampus), FIG. 10F vs Table 2
T1 construct: from tissue; host or cells: mouse hippocampus
Experimental: (§1) FIGS. 10A-D contain graphs plotting activity levels (counts/6 minutes) for mice treated with the indicated compound at the indicated amount. […] Each group of mice included between three and seven mice. FIGS. 10F is a line graph plotting the competition binding of the indicated compound against [^3H]nisoxetine for mouse hippocampus tissue. FIGS. 10G is a line graph plotting the competition binding of the indicated compound against [^3H]citalopram for mouse cortex tissue. FIG. 10H is a bar graph plotting the duration of immobility (seconds) during a tail suspension test of mice intraperitoneally (ip) or per os (po; orally) treated with 5 mg/kg of the indicated compound. […] Each group of mice included between seven and nine mice.

mouse SERT = target: T2, mouse SERT (Mus musculus, UniProt Q60857); assay: Competition binding against [3H]citalopram, mouse cortex tissue; details: mouse brain tissue (cortex), FIG. 10G vs Table 2
T2 construct: from tissue; host or cells: mouse cortex
Experimental: as §1

T1 sequence (O55192 whole entry): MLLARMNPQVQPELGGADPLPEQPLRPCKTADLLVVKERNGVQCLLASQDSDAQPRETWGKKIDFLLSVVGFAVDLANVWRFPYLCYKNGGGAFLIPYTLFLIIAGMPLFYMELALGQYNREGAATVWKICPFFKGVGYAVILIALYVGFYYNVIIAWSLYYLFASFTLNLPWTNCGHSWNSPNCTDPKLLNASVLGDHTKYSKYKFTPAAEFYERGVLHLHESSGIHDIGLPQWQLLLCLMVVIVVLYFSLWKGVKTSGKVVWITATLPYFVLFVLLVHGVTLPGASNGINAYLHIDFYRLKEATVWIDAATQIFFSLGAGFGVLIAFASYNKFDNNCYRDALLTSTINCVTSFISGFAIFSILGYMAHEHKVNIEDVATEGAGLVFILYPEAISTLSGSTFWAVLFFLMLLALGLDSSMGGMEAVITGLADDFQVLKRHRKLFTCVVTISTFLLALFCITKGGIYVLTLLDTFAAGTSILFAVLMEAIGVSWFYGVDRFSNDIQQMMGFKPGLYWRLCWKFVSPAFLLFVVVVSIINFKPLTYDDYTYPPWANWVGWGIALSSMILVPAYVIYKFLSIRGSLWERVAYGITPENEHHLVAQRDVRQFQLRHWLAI
T2 sequence (Q60857 whole entry): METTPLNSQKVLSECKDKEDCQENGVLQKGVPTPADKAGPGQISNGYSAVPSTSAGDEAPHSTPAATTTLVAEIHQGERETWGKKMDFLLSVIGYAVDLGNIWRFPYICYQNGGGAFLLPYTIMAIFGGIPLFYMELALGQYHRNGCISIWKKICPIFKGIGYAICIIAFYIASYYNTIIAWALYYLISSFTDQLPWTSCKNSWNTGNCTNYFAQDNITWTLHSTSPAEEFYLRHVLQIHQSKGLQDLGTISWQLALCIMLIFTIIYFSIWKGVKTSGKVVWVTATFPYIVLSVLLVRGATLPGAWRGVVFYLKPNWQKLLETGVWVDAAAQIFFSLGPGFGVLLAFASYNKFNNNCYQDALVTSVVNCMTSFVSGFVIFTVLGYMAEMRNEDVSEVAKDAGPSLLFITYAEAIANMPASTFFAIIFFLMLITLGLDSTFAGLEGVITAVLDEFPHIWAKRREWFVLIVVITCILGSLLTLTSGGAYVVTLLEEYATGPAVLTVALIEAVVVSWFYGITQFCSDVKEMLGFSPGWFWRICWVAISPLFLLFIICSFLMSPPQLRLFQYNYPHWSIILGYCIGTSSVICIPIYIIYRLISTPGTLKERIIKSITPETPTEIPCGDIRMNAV

CNC[C@H](c1ccc2ccccc2c1)[C@@H](F)c1ccccc1 [MCJ001-F-RS, (2S,3R)-3-fluoro-N-methyl-2-(naphthalen-2-yl)-3-phenylpropan-1-amine]
Effect on locomotor activity (mice): Only d-amphetamine caused a significant effect on locomotor activity

CNC[C@H](c1ccc2ccccc2c1)[C@H](OC)c1ccccc1 [MCJ001-OMe-SS, (2S,3S)-3-methoxy-N-methyl-2-(naphthalen-2-yl)-3-phenylpropan-1-amine]
Effect on locomotor activity (mice): Only d-amphetamine caused a significant effect on locomotor activity

CN(C)C[C@H](c1ccc2ccccc2c1)[C@H](N)c1ccccc1 [MCJ002-NH2-SS, (2S,3S)-N1,N1-dimethyl-2-(naphthalen-2-yl)-3-phenylpropane-1,3-diamine]
Potency at mouse NET as compared to potency at human NET (mouse NET): 10 fold weaker | Potency at mouse SERT as compared to human SERT (mouse SERT): about the same potency at mouse SERT
